Test results published in paper PMC4890880 (ACS infectious diseases, 2016).
Read-outs that look alike come from different tables or passages of the source.

Key:
[1] = system: Plasmodium berghei (Pb-Luc) exoerythrocytic-stage parasites; conditions: for IC50: read-out: PbLuc_IC50, Broad compounds; for normalized signal at concentration 10 / normalized signal at concentration 0.000508053 / normalized signal at concentration 0.00152416 / normalized signal at concentration 0.00457247 / normalized signal at concentration 0.0137174 / normalized signal at concentration 0.0411523 / normalized signal at concentration 0.123457 / normalized signal at concentration 0.37037 / normalized signal at concentration 1.11111 / normalized signal at concentration 3.33333: fraction of control
HepG2-A16-CD81EGFP cells = conditions: for IC50: read-out: Tox_IC50, HepG2 cytotoxicity; for HepG2 Tox% @ 50 uM rep1 / HepG2 Tox% @ 50 uM rep2: human
[2] = system: Plasmodium berghei (Pb-Luc) exoerythrocytic-stage parasites; test: microbe, parasite or virus in culture
[3] = sheet 2nd round, maximal inhibition in dose response
[4] = read-out: Inhibition% @ 50 uM rep1
[5] = read-out: Inhibition% @ 50 uM rep2

## COc1ccc2c3c([nH]c2c1)[C@H](CO)N(Cc1ccccc1)CC31CN(C(=O)c2ccccn2)C1 [BRD-K93348054-001-01-9]
[1]; concentration 0.000508053, first series
  normalised signal at concentration 0.000508053 (first series): 1.077
[1]; concentration 0.000508053, second series
  normalised signal at concentration 0.000508053 (second series): 1.157
[1]; concentration 0.00152416, first series
  normalised signal at concentration 0.00152416 (first series): 0.9906
[1]; concentration 0.00152416, second series
  normalised signal at concentration 0.00152416 (second series): 0.8767
[1]; concentration 0.00457247, first series
  normalised signal at concentration 0.00457247 (first series): 0.8635
[1]; concentration 0.00457247, second series
  normalised signal at concentration 0.00457247 (second series): 1.079
[1]; concentration 0.0137174, first series
  normalised signal at concentration 0.0137174 (first series): 1.042
[1]; concentration 0.0137174, second series
  normalised signal at concentration 0.0137174 (second series): 0.9363
[1]; concentration 0.0411523, first series
  normalised signal at concentration 0.0411523 (first series): 0.9232
[1]; concentration 0.0411523, second series
  normalised signal at concentration 0.0411523 (second series): 0.9999
[1]; concentration 0.123457, first series
  normalised signal at concentration 0.123457 (first series): 0.9966
[1]; concentration 0.123457, second series
  normalised signal at concentration 0.123457 (second series): 1.053
[1]; concentration 0.37037, first series
  normalised signal at concentration 0.37037 (first series): 0.8299
[1]; concentration 0.37037, second series
  normalised signal at concentration 0.37037 (second series): 0.8736
[1]; concentration 1.11111, first series
  normalised signal at concentration 1.11111 (first series): 0.8048
[1]; concentration 1.11111, second series
  normalised signal at concentration 1.11111 (second series): 0.7
[1]; concentration 3.33333, first series
  normalised signal at concentration 3.33333 (first series): 0.6468
[1]; concentration 3.33333, second series
  normalised signal at concentration 3.33333 (second series): 0.6466
[1]; concentration 10, first series of dose columns
  normalised signal at concentration 10 (first series): 0.6758
[1]; concentration 10, second series of dose columns
  normalised signal at concentration 10 (second series): 0.621
[1]; sheet "2nd round", dose response top concentration 10
  IC50: > 10 µM
[1]; sheet "2nd round"
  PbLuc_max_inhibition (%): 38%
HepG2-A16-CD81EGFP cells; sheet "2nd round"
  IC50: > 10 µM
  Tox_max_inhibition (%): 18%

## C[C@@H]1CN([C@@H](C)CO)C(=O)c2cccc(NC(=O)c3ccc(-c4nccs4)cc3)c2O[C@H]1CN(C)C(=O)Nc1ccc(C(F)(F)F)cc1 [BRD-K97485207-001-01-1]
[1]; first series of dose-response columns
  normalized signal at concentration 10: 0.53
[1]; first series
  normalized signal at concentration 0.000508053: 0.80
  normalized signal at concentration 0.00152416: 0.94
  normalized signal at concentration 0.00457247: 0.89
  normalized signal at concentration 0.0137174: 0.64
  normalized signal at concentration 0.0411523: 0.84
  normalized signal at concentration 0.123457: 1.04
  normalized signal at concentration 0.37037: 0.85
  normalized signal at concentration 1.11111: 0.73
  normalized signal at concentration 3.33333: 0.73
[1]; sheet 2nd round, dose response
  IC50: > 10 µM
[1]; second series of dose-response columns
  normalized signal at concentration 10: 0.66
[1]; second series
  normalized signal at concentration 0.000508053: 0.85
  normalized signal at concentration 0.00152416: 0.90
  normalized signal at concentration 0.00457247: 0.80
  normalized signal at concentration 0.0137174: 0.89
  normalized signal at concentration 0.0411523: 0.77
  normalized signal at concentration 0.123457: 0.77
  normalized signal at concentration 0.37037: 0.95
  normalized signal at concentration 1.11111: 0.95
  normalized signal at concentration 3.33333: 0.97
[1]; [3]
  PbLuc_max_inhibition (%): 47%
HepG2-A16-CD81EGFP cells; sheet 2nd round
  IC50: > 10 µM
HepG2-A16-CD81EGFP cells; [3]
  Tox_max_inhibition (%): 6.47%

## CCOc1ccc(Nc2c3ccccc3nc3ccccc23)cc1 [MMV000304]
[2]; [4]
  inhibition at 50 µM: 104%
[2]; [5]
  inhibition at 50 µM: 104%
HepG2-A16-CD81EGFP cells
  HepG2 Tox% @ 50 uM rep1: 102%

## CCCCCn1c(=N)n(CC(O)COc2cccc(C)c2)c2ccccc21 (stereo not drawn) [MMV000444]
[2]; [4]
  inhibition at 50 µM: 102%
[2]; [5]
  inhibition at 50 µM: 103%
HepG2-A16-CD81EGFP cells
  HepG2 Tox% @ 50 uM rep1: 100%

## CCOc1cc2c(cc1OCC)C(c1cc(Cl)ccc1O)NCC2 (stereo not drawn) [MMV000478]
[2]; [4]
  inhibition at 50 µM: 103%
[2]; [5]
  inhibition at 50 µM: 104%
HepG2-A16-CD81EGFP cells
  HepG2 Tox% @ 50 uM rep1: 101%

## CCCCC(O)(c1ccc(Cl)cc1)C(CN1CCOCC1)c1ccc(Cl)cc1 (stereo not drawn) [MMV000619]
[2]; [4]
  inhibition at 50 µM: 99%
[2]; [5]
  inhibition at 50 µM: 100%
HepG2-A16-CD81EGFP cells
  HepG2 Tox% @ 50 uM rep1: 97%

## OC(CNCc1ccccc1)Cn1c2ccccc2c2ccccc21 (stereo not drawn) [MMV000839]
[2]; [4]
  inhibition at 50 µM: 101%
[2]; [5]
  inhibition at 50 µM: 100%
HepG2-A16-CD81EGFP cells
  HepG2 Tox% @ 50 uM rep1: 99%

## OCCNc1nc(Nc2ccc(Cl)c(Cl)c2)nc2ccccc12 [MMV001041]
[2]; [4]
  inhibition at 50 µM: 99%
[2]; [5]
  inhibition at 50 µM: 101%
HepG2-A16-CD81EGFP cells
  HepG2 Tox% @ 50 uM rep1: 98%

## CN(C)CCNc1cc(-c2ccccc2)nc2ccccc12 [MMV006704]
[2]; [4]
  inhibition at 50 µM: 95%
[2]; [5]
  inhibition at 50 µM: 97%
HepG2-A16-CD81EGFP cells
  HepG2 Tox% @ 50 uM rep1: 96%

## COc1ccc(Nc2cc(C)nc(NCc3ccccc3)n2)cc1 [MMV006825]
[2]; [4]
  inhibition at 50 µM: 100%
[2]; [5]
  inhibition at 50 µM: 100%
HepG2-A16-CD81EGFP cells
  HepG2 Tox% @ 50 uM rep1: 97%

## CCOC(=O)c1cnc2ccc(Cl)cc2c1NCCCN(C)C [MMV006882]
[2]; [4]
  inhibition at 50 µM: 99%
[2]; [5]
  inhibition at 50 µM: 102%
HepG2-A16-CD81EGFP cells
  HepG2 Tox% @ 50 uM rep1: 99%

## CCOc1ccc2nc(C)cc(Nc3ccc(N(C)C)cc3)c2c1 [MMV007020]
[2]; [4]
  inhibition at 50 µM: 100%
[2]; [5]
  inhibition at 50 µM: 101%
HepG2-A16-CD81EGFP cells
  HepG2 Tox% @ 50 uM rep1: 97%

## COc1nc(Nc2ccc(C(C)C)cc2)nc(OC)n1 [MMV007808]
[2]; [4]
  inhibition at 50 µM: 101%
[2]; [5]
  inhibition at 50 µM: 96%
HepG2-A16-CD81EGFP cells
  HepG2 Tox% @ 50 uM rep1: 94%
  HepG2 Tox% @ 50 uM rep2: 95%

## COc1ccc2nc(C)cc(Nc3cccc(O)c3)c2c1 [MMV008212]
[2]; [4]
  inhibition at 50 µM: 99%
[2]; [5]
  inhibition at 50 µM: 102%
HepG2-A16-CD81EGFP cells
  HepG2 Tox% @ 50 uM rep1: 99%

## O=C(CCc1ccccc1)c1ccccc1OCC(O)CN1CCCCC1 (stereo not drawn) [MMV009015]
[2]; [4]
  inhibition at 50 µM: 99%
[2]; [5]
  inhibition at 50 µM: 100%
HepG2-A16-CD81EGFP cells
  HepG2 Tox% @ 50 uM rep1: 97%

## O=C1c2ccc3c4c(ccc(c24)C(=O)N1CCCCO)C(=O)N(CCCCO)C3=O [MMV009085]
[2]; [4]
  inhibition at 50 µM: 103%
[2]; [5]
  inhibition at 50 µM: 104%
HepG2-A16-CD81EGFP cells
  HepG2 Tox% @ 50 uM rep1: 102%

## Oc1ccc2ccccc2c1CNc1nc2ccccc2[nH]1 [MMV011832]
[2]; [4]
  inhibition at 50 µM: 99%
[2]; [5]
  inhibition at 50 µM: 101%
HepG2-A16-CD81EGFP cells
  HepG2 Tox% @ 50 uM rep1: 100%

## COc1ccc(C(=O)Nc2ccc3nc(N4CCCCC4)cc(C)c3c2)cc1OC [MMV019758]
[2]; [4]
  inhibition at 50 µM: 104%
[2]; [5]
  inhibition at 50 µM: 104%
HepG2-A16-CD81EGFP cells
  HepG2 Tox% @ 50 uM rep1: 101%
  HepG2 Tox% @ 50 uM rep2: 101%

## CCn1c(CN2CCN(Cc3ccccc3)CC2)nc2cc(NC(=O)c3cccs3)ccc21 [MMV020439]
[2]; [4]
  inhibition at 50 µM: 99%
[2]; [5]
  inhibition at 50 µM: 102%
HepG2-A16-CD81EGFP cells
  HepG2 Tox% @ 50 uM rep1: 98%
  HepG2 Tox% @ 50 uM rep2: 99%

## CN(C)CCCNCc1ccc(-c2ccc(F)c(Cl)c2)o1 [MMV020505]
[2]; [4]
  inhibition at 50 µM: 98%
[2]; [5]
  inhibition at 50 µM: 98%
HepG2-A16-CD81EGFP cells
  HepG2 Tox% @ 50 uM rep1: 96%

## CCC(O)c1ccc(Br)cc1NC(=O)c1cccc(Cl)c1 (stereo not drawn) [MMV020654]
[2]; [4]
  inhibition at 50 µM: 104%
[2]; [5]
  inhibition at 50 µM: 106%
HepG2-A16-CD81EGFP cells
  HepG2 Tox% @ 50 uM rep1: 101%
  HepG2 Tox% @ 50 uM rep2: 101%

## COc1cc(-c2nc(-c3ccccc3)c(-c3ccccc3)[nH]2)cc(OC)c1O [MMV020750]
[2]; [4]
  inhibition at 50 µM: 103%
[2]; [5]
  inhibition at 50 µM: 104%
HepG2-A16-CD81EGFP cells
  HepG2 Tox% @ 50 uM rep1: 102%

## COc1ccc(C=C2SC(Nc3ccc(F)cc3)=NC2=O)c(OC)c1 [MMV084434]
[2]; [4]
  inhibition at 50 µM: 103%
[2]; [5]
  inhibition at 50 µM: 104%
HepG2-A16-CD81EGFP cells
  HepG2 Tox% @ 50 uM rep1: 100%

## OC(CNCC1CCCO1)Cn1c2ccc(Cl)cc2c2cc(Cl)ccc21 (stereo not drawn) [MMV396736]
[2]; [4]
  inhibition at 50 µM: 101%
[2]; [5]
  inhibition at 50 µM: 101%
HepG2-A16-CD81EGFP cells
  HepG2 Tox% @ 50 uM rep1: 98%
  HepG2 Tox% @ 50 uM rep2: 99%

## CC(C)CNC(=O)c1c(N)n(CCc2ccccc2F)c2nc3ccccc3nc12 [MMV396744]
[2]; [4]
  inhibition at 50 µM: 101%
[2]; [5]
  inhibition at 50 µM: 103%
HepG2-A16-CD81EGFP cells
  HepG2 Tox% @ 50 uM rep1: 99%
  HepG2 Tox% @ 50 uM rep2: 99%
